Species on record: Rattus norvegicus
Assay: DrugMatrix - Regimen: Daily Repeat
Type: toxicity, organism-based, Sprague-Dawley
Set-up: regimen Daily Repeat, gender Male, age 6-8 weeks
Details: in vivo, po, route oral GAVAGE, vehicle .5 % CMC; for ABSOLUTE BASOPHIL / BASOPHIL / EOSINOPHIL / ERYTHROCYTE COUNT / HEMATOCRIT / HEMOGLOBIN / LEUKOCYTE COUNT / LYMPHOCYTE / MEAN CORPUSCULAR HEMOGLOBIN / MEAN CORPUSCULAR HEMOGLOBIN CONCENTRATION / MEAN CORPUSCULAR VOLUME / MONOCYTE / NEUTROPHIL / PLATELET COUNT: tissue Blood; for ALANINE AMINOTRANSFERASE / ALBUMIN / ALKALINE PHOSPHATASE / ASPARTATE AMINOTRANSFERASE / BLOOD UREA NITROGEN / CHLORIDE / CHOLESTEROL / CREATINE PHOSPHOKINASE / CREATININE / GLUCOSE / PHOSPHORUS / POTASSIUM / SODIUM / TOTAL BILIRUBIN / TOTAL PROTEIN: tissue Plasma
[1] = 0 mg/kg, 72 h, dose level Control, time 3 day
[2] = 0 mg/kg, 120 h, dose level Control, time 5 day
[3] = 100 mg/kg, 72 h, dose level Low, time 3 day
[4] = 100 mg/kg, 120 h, dose level Low, time 5 day
[5] = 390 mg/kg, 72 h, dose level High, time 3 day
[6] = 390 mg/kg, 120 h, dose level High, time 5 day

CC[C@]1(O)CC[C@H]2[C@@H]3CCC4=CCCC[C@@H]4[C@H]3CC[C@@]21C
ABSOLUTE BASOPHIL [1]: 16.7 cells/µL | BASOPHIL [1]: 0.17% | EOSINOPHIL [1]: 0.62% | ERYTHROCYTE COUNT [1]: 6.55 x10E6/uL | HEMATOCRIT [1]: 42% | HEMOGLOBIN [1]: 13.48 G/DL | LEUKOCYTE COUNT [1]: 8.79 x10E3/uL | LYMPHOCYTE [1]: 76.98% | MEAN CORPUSCULAR HEMOGLOBIN [1]: 20.57 pg | MEAN CORPUSCULAR HEMOGLOBIN CONCENTRATION [1]: 32.08 G/DL | MEAN CORPUSCULAR VOLUME [1]: 64.1 fL | MONOCYTE [1]: 2.12% | NEUTROPHIL [1]: 19% | PLATELET COUNT [1]: 1432.17 x10E3/uL | ALANINE AMINOTRANSFERASE [1]: 42.83 u/L | ALBUMIN [1]: 3.63 G/DL | ALKALINE PHOSPHATASE [1]: 328.5 u/L | ASPARTATE AMINOTRANSFERASE [1]: 78.33 u/L | BLOOD UREA NITROGEN [1]: 14.5 mg/dL | CHLORIDE [1]: 104.5 MEQ/L | CHOLESTEROL [1]: 78.67 mg/dL | CREATINE PHOSPHOKINASE [1]: 282.33 u/L | CREATININE [1]: 0.25 mg/dL | GLUCOSE [1]: 173.67 mg/dL | PHOSPHORUS [1]: 12.83 mg/dL | POTASSIUM [1]: 6.7 MEQ/L | SODIUM [1]: 145.83 MEQ/L | TOTAL BILIRUBIN [1]: 0.4 mg/dL | TOTAL PROTEIN [1]: 5.93 G/DL | ABSOLUTE BASOPHIL [2]: 28 cells/µL | BASOPHIL [2]: 0.26% | EOSINOPHIL [2]: 0.44% | ERYTHROCYTE COUNT [2]: 6.99 x10E6/uL | HEMATOCRIT [2]: 45.12% | HEMOGLOBIN [2]: 14.26 G/DL | LEUKOCYTE COUNT [2]: 9.42 x10E3/uL | LYMPHOCYTE [2]: 79.92% | MEAN CORPUSCULAR HEMOGLOBIN [2]: 20.44 pg | MEAN CORPUSCULAR HEMOGLOBIN CONCENTRATION [2]: 31.62 G/DL | MEAN CORPUSCULAR VOLUME [2]: 64.6 fL | MONOCYTE [2]: 2.2% | NEUTROPHIL [2]: 16.14% | PLATELET COUNT [2]: 1062.2 x10E3/uL | ALANINE AMINOTRANSFERASE [2]: 44 u/L | ALBUMIN [2]: 3.73 G/DL | ALKALINE PHOSPHATASE [2]: 342.6 u/L | ASPARTATE AMINOTRANSFERASE [2]: 74.17 u/L | BLOOD UREA NITROGEN [2]: 13 mg/dL | CHLORIDE [2]: 103 MEQ/L | CHOLESTEROL [2]: 72.83 mg/dL | CREATINE PHOSPHOKINASE [2]: 184.67 u/L | CREATININE [2]: 0.47 mg/dL | GLUCOSE [2]: 168.17 mg/dL | PHOSPHORUS [2]: 12.27 mg/dL | POTASSIUM [2]: 6.98 MEQ/L | SODIUM [2]: 147 MEQ/L | TOTAL BILIRUBIN [2]: 0.65 mg/dL | TOTAL PROTEIN [2]: 6.23 G/DL | ABSOLUTE BASOPHIL [3]: 23.3 cells/µL | BASOPHIL [3]: 0.23% | EOSINOPHIL [3]: 0.63% | ERYTHROCYTE COUNT [3]: 7.14 x10E6/uL | HEMATOCRIT [3]: 43.57% | HEMOGLOBIN [3]: 14.03 G/DL | LEUKOCYTE COUNT [3]: 12.51 x10E3/uL | LYMPHOCYTE [3]: 79.1% | MEAN CORPUSCULAR HEMOGLOBIN [3]: 19.63 pg | MEAN CORPUSCULAR HEMOGLOBIN CONCENTRATION [3]: 32.2 G/DL | MEAN CORPUSCULAR VOLUME [3]: 61 fL | MONOCYTE [3]: 2.57% | NEUTROPHIL [3]: 16.13% | PLATELET COUNT [3]: 1395 x10E3/uL | ALANINE AMINOTRANSFERASE [3]: 38 u/L | ALBUMIN [3]: 3.67 G/DL | ALKALINE PHOSPHATASE [3]: 426 u/L | ASPARTATE AMINOTRANSFERASE [3]: 66.33 u/L | BLOOD UREA NITROGEN [3]: 10.33 mg/dL | CHLORIDE [3]: 103.33 MEQ/L | CHOLESTEROL [3]: 51 mg/dL | CREATINE PHOSPHOKINASE [3]: 235.33 u/L | CREATININE [3]: 0.33 mg/dL | GLUCOSE [3]: 164.33 mg/dL | PHOSPHORUS [3]: 12.4 mg/dL | POTASSIUM [3]: 6.67 MEQ/L | SODIUM [3]: 145 MEQ/L | TOTAL BILIRUBIN [3]: 0.47 mg/dL | TOTAL PROTEIN [3]: 6 G/DL | ABSOLUTE BASOPHIL [4]: 56.7 cells/µL | BASOPHIL [4]: 0.47% | EOSINOPHIL [4]: 0.23% | ERYTHROCYTE COUNT [4]: 6.95 x10E6/uL | HEMATOCRIT [4]: 44.83% | HEMOGLOBIN [4]: 14.17 G/DL | LEUKOCYTE COUNT [4]: 12.16 x10E3/uL | LYMPHOCYTE [4]: 86.2% | MEAN CORPUSCULAR HEMOGLOBIN [4]: 20.37 pg | MEAN CORPUSCULAR HEMOGLOBIN CONCENTRATION [4]: 31.6 G/DL | MEAN CORPUSCULAR VOLUME [4]: 64.47 fL | MONOCYTE [4]: 2% | NEUTROPHIL [4]: 10.03% | PLATELET COUNT [4]: 1290.67 x10E3/uL | ALANINE AMINOTRANSFERASE [4]: 38.67 u/L | ALBUMIN [4]: 3.67 G/DL | ALKALINE PHOSPHATASE [4]: 360 u/L | ASPARTATE AMINOTRANSFERASE [4]: 55 u/L | BLOOD UREA NITROGEN [4]: 10.67 mg/dL | CHLORIDE [4]: 99 MEQ/L | CHOLESTEROL [4]: 42 mg/dL | CREATINE PHOSPHOKINASE [4]: 164 u/L | CREATININE [4]: 0.2 mg/dL | GLUCOSE [4]: 173.33 mg/dL | PHOSPHORUS [4]: 12.6 mg/dL | POTASSIUM [4]: 7.33 MEQ/L | SODIUM [4]: 147 MEQ/L | TOTAL BILIRUBIN [4]: 0.33 mg/dL | TOTAL PROTEIN [4]: 6.1 G/DL | ABSOLUTE BASOPHIL [5]: 36.7 cells/µL | BASOPHIL [5]: 0.27% | EOSINOPHIL [5]: 0.43% | ERYTHROCYTE COUNT [5]: 7 x10E6/uL | HEMATOCRIT [5]: 42.77% | HEMOGLOBIN [5]: 14.3 G/DL | LEUKOCYTE COUNT [5]: 13.01 x10E3/uL | LYMPHOCYTE [5]: 77.23% | MEAN CORPUSCULAR HEMOGLOBIN [5]: 20.43 pg | MEAN CORPUSCULAR HEMOGLOBIN CONCENTRATION [5]: 33.43 G/DL | MEAN CORPUSCULAR VOLUME [5]: 61.2 fL | MONOCYTE [5]: 2.47% | NEUTROPHIL [5]: 18% | PLATELET COUNT [5]: 1291 x10E3/uL | ALANINE AMINOTRANSFERASE [5]: 42.67 u/L | ALBUMIN [5]: 3.6 G/DL | ALKALINE PHOSPHATASE [5]: 336.67 u/L | ASPARTATE AMINOTRANSFERASE [5]: 63.33 u/L | BLOOD UREA NITROGEN [5]: 11.33 mg/dL | CHLORIDE [5]: 102.33 MEQ/L | CHOLESTEROL [5]: 36.33 mg/dL | CREATINE PHOSPHOKINASE [5]: 193 u/L | CREATININE [5]: 0.4 mg/dL | GLUCOSE [5]: 166 mg/dL | PHOSPHORUS [5]: 11.2 mg/dL | POTASSIUM [5]: 6.37 MEQ/L | SODIUM [5]: 145.67 MEQ/L | TOTAL BILIRUBIN [5]: 0.63 mg/dL | TOTAL PROTEIN [5]: 5.87 G/DL | ABSOLUTE BASOPHIL [6]: 200 cells/µL | BASOPHIL [6]: 1.57% | EOSINOPHIL [6]: 0.97% | ERYTHROCYTE COUNT [6]: 8.29 x10E6/uL | HEMATOCRIT [6]: 52.23% | HEMOGLOBIN [6]: 16.3 G/DL | LEUKOCYTE COUNT [6]: 13.36 x10E3/uL | LYMPHOCYTE [6]: 79.5% | MEAN CORPUSCULAR HEMOGLOBIN [6]: 19.77 pg | MEAN CORPUSCULAR HEMOGLOBIN CONCENTRATION [6]: 31.27 G/DL | MEAN CORPUSCULAR VOLUME [6]: 63.17 fL | MONOCYTE [6]: 1.77% | NEUTROPHIL [6]: 14.97% | PLATELET COUNT [6]: 1359.67 x10E3/uL | ALANINE AMINOTRANSFERASE [6]: 31 u/L | ALBUMIN [6]: 4.13 G/DL | ALKALINE PHOSPHATASE [6]: 287.67 u/L | ASPARTATE AMINOTRANSFERASE [6]: 54.67 u/L | BLOOD UREA NITROGEN [6]: 14 mg/dL | CHLORIDE [6]: 104.33 MEQ/L | CHOLESTEROL [6]: 60 mg/dL | CREATINE PHOSPHOKINASE [6]: 166 u/L | CREATININE [6]: 0.37 mg/dL | GLUCOSE [6]: 151.33 mg/dL | PHOSPHORUS [6]: 11.3 mg/dL | POTASSIUM [6]: 7 MEQ/L | SODIUM [6]: 155 MEQ/L | TOTAL BILIRUBIN [6]: 0.4 mg/dL | TOTAL PROTEIN [6]: 7.07 G/DL

From ChEMBL document CHEMBL3885881, “DrugMatrix”
